Source: article PMC7984888, “Inhibitory Activity of Pyrroloisoxazolidine Derivatives against Chlamydia trachomatis” (BioMed Research International, 2021)
Where two headings read alike, the source gives them in different places. Each block holds one compound with its values, some of them ahead of it.

What was measured:
[1] = system: C. trachomatis L2; assay: Period incubation assay; type: cell-based, Chlamydia trachomatis; conditions: progeny EBs at 36 hpi; for Inhibitory effect, treated at 0-2 h: 32 μM, 0-2 h period; for Production of infectious progenies, compound added during the 12-24 h period: 2, 8 or 32 μM
Procedure: HeLa cells seeded in 48-well plate were infected with C. trachomatis L2 at an MOI of 0.2 and treated with 2, 8, or 32 μM of compound during 0-2, 2-12, 12-24, and 24-36 h period. At 36 hpi, the production of infectious progeny EBs and percent inhibition data were determined as above.  Figure 7 Period incubation assay. (a) HeLa cells infected with C. trachomatis L2 were treated with 2, 8, or 32 μM individual compound for indicated times. The production of progeny EBs was determined at 36 hpi. (b–d) Percent inhibition of progeny EBs was calculated based on data in compound-treated samples relative to DMSO-treated control. Data are presented as mean ± SD of three independent assays.

[2] = system: C. trachomatis L2; assay: Later treatment assay; type: cell-based, Chlamydia trachomatis; conditions: 2, 8 or 32 μM, progeny EBs at 36 hpi, compared with 0 hpi sample
Procedure: HeLa cells seeded in 48-well plate were infected with C. trachomatis L2 at an MOI of 0.2 and were treated with 2, 8, or 32 μM of compound at 0, 2, 12, and 24 hpi. At 36 hpi, cells were collected, and the production of infectious progeny EBs was determined as described above. Percent inhibition was calculated based on progeny EB count in compound-treated samples relative to DMSO-treated negative control.  Figure 5 Later treatment assay. (a) HeLa cells infected with C. trachomatis L2 were treated with 2, 8, or 32 μM individual compound at 0, 2, 12, or 24 hpi. The production of progeny EBs was determined at 36 hpi. (b–d) Percent inhibition of progeny EBs was calculated based on data in compound-treated samples relative to DMSO-treated control. Data are presented as mean ± SD of three independent assays. ∗∗p < 0.01, compared with each 0 hpi positive control sample by Student's t-tests.

[3] = system: C. trachomatis L2; assay: Withdrawal assay; type: cell-based, Chlamydia trachomatis; conditions: progeny EBs at 36 hpi, compared with 36 hpi sample
Procedure: HeLa cells seeded in 48-well plate were infected with C. trachomatis L2 at an MOI of 0.2 and simultaneously treated with 2, 8, or 32 μM of compound. At 2, 12, 24, and 36 hpi, infected cells were washed twice to remove residual inhibitor, and fresh medium was added. At 36 hpi, the production of infectious progeny EBs and percent inhibition data were determined as above.  Figure 6 Withdrawal assay. (a) HeLa cells infected with C. trachomatis L2 were simultaneously treated with 2, 8, or 32 μM individual compound. The compound was removed at 2, 12, 24, or 36 hpi, and the production of progeny EBs was determined at 36 hpi. (b–d) Percent inhibition of progeny EBs was calculated based on data in compound-treated samples relative to DMSO-treated control. Data are presented as mean ± SD of three independent assays. ∗p < 0.05, ∗∗p < 0.01, compared with each 36 hpi positive control sample by Student's t-tests.

[4] = system: Chlamydia trachomatis serovar D (strain UW-3/CX); assay: Infectious progeny inhibition assay, C. trachomatis D; type: cell-based; conditions: generation of infectious progeny EBs in HeLa cells, MOI 0.2, 36 hpi, 1 to 32 μM, read-out: IC50 (μM) Mean (95% confidence interval) Ct D
Procedure: Chlamydia trachomatis serovars D (strain UW-3/CX) and L2 (strain 434/Bu) were purchased from ATCC. HeLa cells purchased from ATCC were routinely cultured in DMEM supplemented with 10% heat-inactivated FBS (Sigma-Aldrich) and 10 μg/mL gentamicin at 37°C in a humidified atmosphere of 5% and were used for chlamydial propagation and cell culture experiments. EBs were purified by Renografin density gradient and stored in sucrose-phosphate-glutamate (SPG) buffer at -80°C [20]. A mouse polyclonal anti-MoPn (C. muridarum strain Nigg II) antibody, which was produced in our laboratory and cross-reacting with C. trachomatis D and L2, was used as a primary antibody for both stains detection.
Cell monolayers seeded onto coverslips in a 24-well plate were infected with C. trachomatis at a multiplicity of infection (MOI) of 0.2 inclusion-forming units (IFU) per cell. Unless noted, individual compound was added into culture medium at indicated concentrations simultaneously at the time of inoculation. 0.5% DMSO was used as negative control and 11.25 μM tetracycline (Sigma-Aldrich) as positive control. For C. trachomatis D, an additional centrifugation (900 × g at room temperature for 1 h) was applied to facilitate the infection. At 36 hours postinfection (hpi), infected cells were fixed by precooled methanol and then subjected to sequential staining processed with a primary antibody and a FITC-conjugated secondary antibody. Evans blue was used as cytoplasm counterstain. Images were shot by an Olympus IX51 fluorescence microscope.
Cells monolayers seeded in 48-well plate were infected and treated with chemicals as above. After incubation for 36 hours, infected cells were washed twice, scraped off, and lysed by sonication to release the infectious progeny EBs. Then the lysates were used to reinfect fresh cell monolayers grown in 96-well plate following 1 : 10 serial dilution. The inclusion counts were obtained by immunofluorescence staining as above to calculate the number of infectious progeny EBs in each sample. Percent inhibition was calculated based on EB counts in compound-treated samples relative to DMSO-treated negative control.
Data from the three independent experiments were presented as mean ± standard deviations (SD) and were subjected to pairwise Student's t-tests. p < 0.05 and p < 0.01 are considered statistically significant and statistically highly significant, respectively. The IC50 values, defined as the concentration of compound at which the generation of infectious progeny EBs was reduced by 50% relative to negative control, were calculated by nonlinear regression from percent inhibition data using the GraphPad Prism 5 software, and presented as mean (95% confidence interval).

[5] = system: Chlamydia trachomatis L2 EBs; assay: Elementary body pretreatment assay; type: cell-based; conditions: for EB entry efficiency after EB pretreatment for 4 h: 32 μM, 4°C; for EB counts that enter into host cells after EB pretreatment for 1 h: 2, 8 and 32 μM, 37°C and 4°C
Procedure: Chlamydia trachomatis L2 EBs suspended in SPG at 4 x 10^5 IFU/mL were exposed to 2, 8, or 32 μM individual compound at 37°C or 4°C for indicated times. EBs then were washed twice to eliminate the residual chemical and were immediately loaded onto HeLa cell monolayers at an MOI of 0.2. The infective EB count was measured by quantifying inclusion numbers at 36 hpi using immunofluorescence staining as above.  Figure 4 Compounds 1 and 2 weakly attenuated the EB infectivity. Chlamydia trachomatis L2 EBs were incubated with 2, 8, or 32 μM compound 1 (a) or 2 (b) at 37°C or 4°C for 1 or 4 h. After washes, EBs were used to infect HeLa cell. At 36 hpi, the inclusion was counted as described in “Materials and Methods.” Data are presented as mean ± SD of three independent assays. ∗∗p < 0.01, compared 4°C with 37°C by Student's t-tests. ^#p < 0.05, compared with each DMSO control sample by Student's t-tests.

IC50 ([4]; Chlamydia trachomatis, HeLa): < 10 µM | IC50 [4]: 9.31 µM
SMILES: c1ccc(C2C3CC(c4ccccc4)N(c4ccccc4)C3ON2c2ccccc2)cc1 (stereo not drawn) [Compound 1]
Inhibitory effect, treated at 0-2 h [1]: weak inhibitory effect | Production of infectious progenies, compound added during the 12-24 h period [1]: significantly inhibited | Intracellular chlamydial growth, 2-12 h period treatment [1]: partially prevented | Infectious progeny EBs, 24-36 h period incubation [1]: partially inhibited | Antichlamydial activity when chemical was added at 24 hpi [2]: dramatically dropped | Antichlamydial activity when chemical was added before 12 hpi [2]: maintained | Inhibitory effect when chemical was removed after 24 hpi [3]: relatively well preserved | Inhibitory effect when chemical was removed before 12 hpi [3]: significantly reduced | EB entry efficiency after EB pretreatment for 4 h [5]: slightly dropped | EB counts that enter into host cells after EB pretreatment for 1 h [5]: did not change

IC50 ([4]; Chlamydia trachomatis, HeLa): < 10 µM | IC50 [4]: 9.73 µM
SMILES: Clc1ccc(N2C(c3ccccc3)CC3C(c4ccccc4)N(c4ccccc4)OC32)cc1 (stereo not drawn) [Compound 2]
Inhibitory effect, treated at 0-2 h [1]: weak inhibitory effect | Production of infectious progenies, compound added during the 12-24 h period [1]: significantly inhibited | Intracellular chlamydial growth, 2-12 h period treatment [1]: partially prevented | Infectious progeny EBs, 24-36 h period incubation [1]: partially inhibited | Antichlamydial activity when chemical was added at 24 hpi [2]: dramatically dropped | Antichlamydial activity when chemical was added before 12 hpi [2]: maintained | Inhibitory effect when chemical was removed after 24 hpi [3]: relatively well preserved | Inhibitory effect when chemical was removed before 12 hpi [3]: significantly reduced | EB entry efficiency after EB pretreatment for 4 h [5]: slightly dropped | EB counts that enter into host cells after EB pretreatment for 1 h [5]: did not change
